Laboratory results published in patent publication US11472807B2, “Purine derivatives for use as medicament and for use in treating neurodegenerative or neuro-inflammatory disorders” (COMMISSARIAT À L'ENERGIE ATOMIQUE ET AUX ENERGIES …, priority 2017, dated 2022).

Columns and labels:
[1] = tested on: non-spatial medium-term memory; experiment: Novel object recognition (NOR) test; assay type: in vivo, C57Bl/6J mice; settings: WT mice, 8 mg/kg subcutaneous, 28 days
Procedure: FIG. 14. Plots illustrating the effect of Aftin-5 on non-spatial medium-term memory. C57B1/6J mice were exposed sub-cutaneously to (A) the vehicle condition (DMSO/PEG) or (B) Aftin-5 at 8 mg/kg, during 28 days through an Alzet pump. 3-4 weeks later, cognitive abilities were assessed through different novel object recognition (NOR) tests, including the recognition of familiar objects (dark gray bars) or novel objects (light gray bars). Two-way ANOVA and Bonferroni post-hoc tests were performed and *p<0.05 indicates significant differences between Aftin-5 and control conditions, **p<0.01. Data expressed as means+/−SEM with n=15 mice/condition.
The NOR test is a test to assess the medium-term non-spatial memory (object). This test takes place in 3 sessions: the Open Field, the Familiarization session and the Test session. The first session allows the habituation of the mouse to the arena. The mouse is placed in the empty arena for 15 min. During this session, the velocity, locomotor activity and anxiety of the mouse are checked. The second session is to familiarize the animal with objects. For this, 24 hours after the Open Field, the mouse is placed in the arena containing two identical objects. The mouse will explore the arena and the two objects placed in the center for 10 min. Finally, after an interval of pre-established time (24 hours), the mouse is placed again in the same arena. […]

[2] = tested on: BDNF; experiment: BDNF mRNA in OHSC (RT-qPCR); assay type: cell-based; settings: OHSCs from WT mice, 50 μM, 10 days
Procedure: FIG. 15. Plots illustrating the effect of Aftin-5 on relative mRNA expression levels of Long Term Potentialisation (LTP) biomarkers, i.e CREB (A), PSD95 (B) and BDNF (C) in C57B16J OHSC mice treated chronically with Aftin-5. OHSC culture media of OHSC were replaced by incubation medium containing Aftin-5 (50 μM; A50) or vehicle (0.1% DMSO; Veh). 10 days later, total mRNA in lysate was isolated and purified, cDNAs were then synthesized from […] of total mRNA. cDNAs were amplified by quantitative RT-PCR and the relative expression of specific genes was normalized to the housekeeping gene HPRT1 (2^—ΔCt). […] Data expressed as means+/−SEM from q=3 independent experiments with n=4-6 inserts/condition and 10 slices/insert. […]
The impact of Aftin-5 on gene expression of different biomarkers was determined by measuring mRNA levels of selected BDNF, CREB, PS95, INS Receptor/IGF-1 receptor, IL-1β, IL-6 in OHSC treated chronically with Aftin-5 or in a total brain from mice exposed to Aftin-5 at either 8 or 30 mg/Kg. […] RNA concentration was measured spectrophotometrically at 260 nm in a NanoDrop 2000c (Thermo Scientific, Villebon-sur-Yvette, France) (sample A260 nm/A280 nm ratios over 1.8 indicated reduced genomic DNA contamination). cDNAs were synthesized from 0.5 μg of total RNA with RT^2 First Strand kit (Qiagen, Courtaboeuf, France) according to the manufacturer's protocol and stored at −80° C. […]

[3] = tested on: IL-6; experiment: IL-6 mRNA in OHSC (RT-qPCR); assay type: cell-based, mice; settings: 50 μM, 10 days, vs vehicle, P=0.06
Procedure: FIG. 10. Plots illustrating the effect of Aftin-5 on relative mRNA expression levels of interleukin-1-beta (IL-1β; (A)), interleukin-6 (IL-6; (B)), TNF-alpha (TNFα; (C)) and interleukin-10 (IL-10; (D)) in organotypic hippocampal slice cultures (OHSC). OHSC culture media […] were replaced by incubation medium containing Aftin-5 (50 μM; A50) or vehicle (0.1% DMSO; Veh). 10 days later, total mRNA in lysate was isolated and purified, cDNAs were then synthesized from […] of total mRNA. cDNAs were amplified by quantitative RT-PCR and the relative expression of specific genes was normalized to the housekeeping gene HPRT1 (2^−ΔCt). Mann-Whitney tests were performed and ***p<0.001 indicates significant differences between Aftin-5 and control conditions. Data expressed as means+/−SEM from q=3 independent experiments with n=4-6 inserts/condition and 10 slices/insert. […]
The impact of Aftin-5 on gene expression of different biomarkers was determined by measuring mRNA levels of selected BDNF, CREB, PS95, INS Receptor/IGF-1 receptor, IL-1β, IL-6 in OHSC treated chronically with Aftin-5 or in a total brain from mice exposed to Aftin-5 at either 8 or 30 mg/Kg. […] Threshold cycles (Ct) of target gene and cyclophilin A (Ppia−control housekeeping gene) were recorded and gene expression was calculated as 2^−ΔΔCt(ΔΔCt=ΔCttreated−ΔCtcontrol, ΔCt=Cttarget−CtPpia). […]

## CC[C@H](CO)Nc1nc(N(C)c2ccccc2)c2ncn(C(C)C)c2n1 [Aftin-5]
[1]
  improvement of long term object recognition memory in NOR test: does not achieve significance
[2]
  BDNF mRNA: transcriptional upregulation
[3]
  IL-6 mRNA synthesis: do not achieve significance
